Data as given in patent publication US6987004B1, “Genes integrating signal transduction pathways” (Massachusetts Institute of Technology, priority 1998, dated 2006).

Experiments:
Format in all cases: cell-based
cAMP-GEFI = biological target: T1, cAMP-GEFI (Rattus norvegicus, UniProt Q9Z1C8); test: Ratio of GTP to GDP bound to Rap1A in 293T cells expressing cAMP-GEFI; design: expressed in transfected cells; host or cells: 293T cells
T1 sequence (Q9Z1C8 43-926 limits assumed): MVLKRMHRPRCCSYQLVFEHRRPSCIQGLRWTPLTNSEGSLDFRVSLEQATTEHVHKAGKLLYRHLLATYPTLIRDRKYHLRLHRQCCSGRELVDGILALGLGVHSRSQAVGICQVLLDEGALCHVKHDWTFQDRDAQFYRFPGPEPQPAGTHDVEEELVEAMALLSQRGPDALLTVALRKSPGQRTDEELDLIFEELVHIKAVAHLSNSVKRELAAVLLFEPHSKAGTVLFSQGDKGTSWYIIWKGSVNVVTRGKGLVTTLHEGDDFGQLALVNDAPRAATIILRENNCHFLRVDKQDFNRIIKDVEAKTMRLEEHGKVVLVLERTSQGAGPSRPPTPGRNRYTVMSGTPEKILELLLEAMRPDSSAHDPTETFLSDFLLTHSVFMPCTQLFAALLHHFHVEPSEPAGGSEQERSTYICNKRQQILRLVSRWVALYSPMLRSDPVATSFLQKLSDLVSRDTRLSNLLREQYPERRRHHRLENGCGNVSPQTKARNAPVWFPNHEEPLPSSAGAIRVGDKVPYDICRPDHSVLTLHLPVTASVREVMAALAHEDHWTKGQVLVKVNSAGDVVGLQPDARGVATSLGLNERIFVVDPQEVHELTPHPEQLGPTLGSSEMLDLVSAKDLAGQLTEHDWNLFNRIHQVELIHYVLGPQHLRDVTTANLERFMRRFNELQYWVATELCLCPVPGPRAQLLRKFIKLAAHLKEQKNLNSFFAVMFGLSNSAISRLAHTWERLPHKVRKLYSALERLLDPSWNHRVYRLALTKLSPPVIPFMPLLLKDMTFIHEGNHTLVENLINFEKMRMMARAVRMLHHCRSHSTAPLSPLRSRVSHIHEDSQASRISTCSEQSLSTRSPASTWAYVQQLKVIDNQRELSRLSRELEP
Description: (§1) To determine the effect of CalDAG-GEFI on the Erk/MAP kinase cascade, Elk1 activation was measured in 293T cells transfected with CalDAG-GEFI or constitutively active H-Ras (RasV12), or both. 293T cells were transfected by SuperFect (Qiagen) as described in Gotoh, supra, with expression vectors for GST-tagged Ras family proteins and with those for various GEFs. Cells were labeled 24 hours after transfection with ^32Pi for 2 hr. In some experiments, cells were stimulated with either 10 μM A23187 or 1 μM phorbol-12-myristate-13-acetate (TPA) for 3 min. GST-tagged Ras family proteins were collected from cell lysates with glutathione Sepharose. Guanine nucleotides bound to Ras family proteins were separated by thin layer chromatography (TLC). Activation of Elk1 was examined by the PathDetect Elk1 transreporting system (Stratagene). 293T cells were transfected with pFR-Luc and pFA-Elk1 with various expression vectors, and light output was detected and analyzed by the use of LAS1000 film.
(§2) Forskolin/IBMX treatment given alone had no effect.
Thus, cAMP-GEFI has a direct effect on Rap1A rather than secondary effects mediated by other Ras-superfamily GEFs.

cAMP-GEFII = biological target: T2, cAMP-GEFII (Homo sapiens, UniProt Q8WZA2); test: Ratio of GTP to GDP bound to Rap1A in 293T cells expressing cAMP-GEFII
T2 construct: expressed in transfected cells; host or cells: 293T cells
T2 sequence (Q8WZA2 whole entry): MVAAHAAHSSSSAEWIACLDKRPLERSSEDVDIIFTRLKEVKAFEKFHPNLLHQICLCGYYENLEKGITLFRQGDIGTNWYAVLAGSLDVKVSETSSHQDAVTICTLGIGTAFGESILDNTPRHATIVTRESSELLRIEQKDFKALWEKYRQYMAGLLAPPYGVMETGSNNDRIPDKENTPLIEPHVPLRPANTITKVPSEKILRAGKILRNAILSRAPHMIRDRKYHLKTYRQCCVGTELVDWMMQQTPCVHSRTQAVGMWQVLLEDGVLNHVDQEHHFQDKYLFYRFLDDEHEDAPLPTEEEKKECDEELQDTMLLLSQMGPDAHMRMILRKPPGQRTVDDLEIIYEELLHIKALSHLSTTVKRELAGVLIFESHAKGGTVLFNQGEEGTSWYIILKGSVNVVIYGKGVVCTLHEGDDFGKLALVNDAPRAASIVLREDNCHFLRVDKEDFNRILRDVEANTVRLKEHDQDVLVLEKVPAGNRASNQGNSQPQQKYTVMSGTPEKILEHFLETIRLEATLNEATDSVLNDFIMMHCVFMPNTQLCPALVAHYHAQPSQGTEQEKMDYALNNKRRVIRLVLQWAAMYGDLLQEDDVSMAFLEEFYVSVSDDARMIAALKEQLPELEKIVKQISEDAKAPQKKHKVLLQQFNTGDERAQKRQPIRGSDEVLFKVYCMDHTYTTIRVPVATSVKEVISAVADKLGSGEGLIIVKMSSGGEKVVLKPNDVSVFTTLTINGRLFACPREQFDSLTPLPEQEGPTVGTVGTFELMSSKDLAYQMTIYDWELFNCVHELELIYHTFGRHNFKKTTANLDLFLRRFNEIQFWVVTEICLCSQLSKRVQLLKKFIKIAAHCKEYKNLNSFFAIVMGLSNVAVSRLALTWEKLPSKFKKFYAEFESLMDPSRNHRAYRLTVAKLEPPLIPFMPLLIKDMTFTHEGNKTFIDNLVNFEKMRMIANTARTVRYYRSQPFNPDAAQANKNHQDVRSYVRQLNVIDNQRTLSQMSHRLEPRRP
Description: as §1, §2

Rap1A = test: GTP-bound Rap1A in 293T cells in the absence of cAMP-GEFs; settings: treatment alone
From the text: as §2
cAMP-dependent activation of Rap1 has previously been ascribed to the phosphorylation of Rap1A by PKA, which raises its affinity to smgGDS, a GEF with broad substrate specificity. […] The activation of Rap1A induced by cAMP-GEFI and II is independent of the PKA pathway.

Rap1A activation by cAMP-GEFI in the presence of the PKA inhibitor (cAMP-GEFI; 293T cells) | Rap1A activation by cAMP-GEFII in the presence of the PKA inhibitor (cAMP-GEFII) | SMILES | Activation of Rap1A (cAMP-GEFI; cAMP-GEFI transfectants) | Increase of GTP-bound Rap1A without cAMP-GEF (Rap1A)
could still activate Rap1A | could still activate Rap1A | O=S(=O)(NCCNC/C=C/c1ccc(Br)cc1)c1cccc2cnccc12 [H-89] |  | 
 |  | Nc1ncnc2c1ncn2[C@@H]1O[C@@H]2COP(O)(=S)O[C@H]2[C@H]1O (stereo partly shown) [Sp-cAMPS] | activated Rap1A at levels similar to those induced by forskolin/IBMX | not detected
